Counter-ions that a name gives are not always drawn.
The compounds below were run against T1, 5-hydroxytryptamine receptor 3A/3B (Mus musculus, UniProt P23979+Q9JHJ5) (assay: Binding affinity towards 5-hydroxytryptamine 3 receptor was determined by using [3H]-ICS 205-930 as radioligand in mouse N1E 115 cells).
T1 sequence (P23979 whole entry): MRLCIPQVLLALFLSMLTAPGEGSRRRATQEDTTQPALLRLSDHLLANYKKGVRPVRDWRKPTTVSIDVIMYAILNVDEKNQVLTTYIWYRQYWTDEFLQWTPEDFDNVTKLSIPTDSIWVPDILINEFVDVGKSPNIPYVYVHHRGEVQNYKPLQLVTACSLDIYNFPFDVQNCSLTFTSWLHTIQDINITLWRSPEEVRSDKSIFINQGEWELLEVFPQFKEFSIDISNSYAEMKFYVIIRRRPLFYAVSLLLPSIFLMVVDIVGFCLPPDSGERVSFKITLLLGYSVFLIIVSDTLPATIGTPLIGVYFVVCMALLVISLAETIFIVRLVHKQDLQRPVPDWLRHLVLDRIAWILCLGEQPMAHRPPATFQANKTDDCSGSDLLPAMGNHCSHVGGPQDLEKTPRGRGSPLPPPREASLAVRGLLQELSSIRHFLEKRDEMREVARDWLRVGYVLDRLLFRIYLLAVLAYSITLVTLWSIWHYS
T1 sequence (Q9JHJ5 whole entry): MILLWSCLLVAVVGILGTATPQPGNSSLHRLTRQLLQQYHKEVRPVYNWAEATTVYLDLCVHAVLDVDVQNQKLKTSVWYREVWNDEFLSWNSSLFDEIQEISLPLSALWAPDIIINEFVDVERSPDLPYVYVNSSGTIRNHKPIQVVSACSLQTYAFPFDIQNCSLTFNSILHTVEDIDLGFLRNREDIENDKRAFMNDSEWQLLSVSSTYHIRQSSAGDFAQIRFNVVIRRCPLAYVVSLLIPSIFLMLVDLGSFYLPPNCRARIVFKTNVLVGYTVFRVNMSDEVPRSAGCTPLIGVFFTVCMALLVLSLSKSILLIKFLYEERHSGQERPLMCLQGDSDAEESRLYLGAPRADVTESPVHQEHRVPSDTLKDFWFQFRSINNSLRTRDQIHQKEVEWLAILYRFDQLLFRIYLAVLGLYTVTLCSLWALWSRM

Point of comparison: `c1ccc2nc(N3CCNCC3)ccc2c1` [2-Piperazin-1-yl-quinoline (Quipazine)], Kd 2 nM. Against it:
- CN1[C@@H]2CC[C@H]1C[C@@H](OC(=O)c1cc(Cl)cc(Cl)c1)C2 [TROPANYL 3,5-DICHLOROBENZOATE] — 3.1-fold higher, 6.2 nM
- Cc1nccn1CC1CCc2c(c3ccccc3n2C)C1=O (stereo unspecified) [NSC_68647] — 6.5-fold higher, 13 nM
- CN1[C@@H]2CC[C@H]1C[C@@H](OC(=O)c1c[nH]c3ccccc13)C2 [(3-ENDO)-8-METHYL-8-AZABICYCLO[3.2.1]OCT-3-YL 1H-INDOLE-3-CARBOXYLATE] — 2.5-fold lower, 0.813 nM
- CCN(CC)CCNC(=O)c1cc(Cl)c(N)cc1OC [4-amino-5-chloro-N-[2-(diethylamino)ethyl]-2-methoxy-benzamide;hydrochloride] — 110-fold higher, 224 nM
- O=C(OC1CC2CCC(C1)N2)c1c[nH]c2ccccc12 (stereo unspecified) [NORTROPISETRON] — 2.8-fold lower, 0.724 nM
